The results in this text go back to patent US9458181B2, “Cathepsin cysteine protease inhibitors” (Merck Sharp & Dohme Corp., priority 2013, dated 2016).

One assay concerns the target human cathepsin K (UniProt P43236). Kind of assay: Cathepsin K Assay (hrbCat K). The class given is biochemical. The conditions noted are these: human cathepsin K 0.4 nM, Z-Leu-Arg-AMC 8 μM, pH 5.5, 15 min preincubation; read-out: hrbCat K IP. Put shortly:
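Human cathepsin K (0.4 nM) in pH 5.5 MES buffer with EDTA, DTT and 10% DMSO was preincubated 15 min at room temperature with compound from a ⅓ dilution series (500-0.025 μM DMSO stocks). Z-Leu-Arg-AMC (8 μM) was then added, and AMC release was followed fluorometrically (Ex 360/Em 460 nm) for 30 min; inhibition was fitted to a dose-response model.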

The target in another assay is T1, human cathepsin F (Homo sapiens, UniProt Q9UBX1).
T1 sequence (Q9UBX1 271-484): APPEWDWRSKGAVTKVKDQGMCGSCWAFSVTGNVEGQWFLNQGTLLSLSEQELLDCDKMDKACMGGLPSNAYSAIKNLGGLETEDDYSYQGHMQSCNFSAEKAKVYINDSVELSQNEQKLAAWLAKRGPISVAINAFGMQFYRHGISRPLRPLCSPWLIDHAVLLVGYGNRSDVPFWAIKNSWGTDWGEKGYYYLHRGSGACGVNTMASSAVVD
Kind of assay: Cathepsin F assay (hCat F). The class given is biochemical. The following applies: human cathepsin F 10 nM, Z-Phe-Arg-AMC 8 μM, pH 5.5, 15 min preincubation; read-out: hCat F IP. Put shortly:
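Human cathepsin F (10 nM) in 50 mM MES pH 5.5, 2.5 mM EDTA, 2.5 mM DTT, 10% DMSO was preincubated 15 min at RT with compounds from a ⅓ DMSO dilution series (500–0.025 μM stocks). Z-Phe-Arg-AMC was added (8 μM as added), and AMC release was read by fluorescence (360/460 nm) for 20 min. Percent inhibition was fitted to a dose-response model.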

Turning to `Cc1ncc(-c2nc(-c3ccc(N4CCS(=O)(=O)CC4)cc3)c([C@@H]3CCCC[C@H]3C(=O)NC3(C#N)CC3)o2)s1` [Example 73, (1R,2R)-N-(1-cyanocyclopropyl)-2-(4-(4-(1,1-dioxidothiomorpholino)phenyl)-2-(2-methylthiazol-5-yl)oxazol-5-yl)cyclohexanecarboxamide], the IC50 on human cathepsin K stood at 0.00142 µM; at human cathepsin F, 1.49 µM.
In the same order, the values of `COc1ccc(-c2nc(-c3ccc(N4CCS(=O)(=O)CC4)cc3)c([C@@H]3CCCC[C@H]3C(=O)NC3(C#N)CC3)o2)cc1` [Example 70] are 0.00184 µM and 0.734 µM.
On the same counts, the results for `N#CCNC(=O)[C@@H]1CC(F)(F)CC[C@H]1c1oc(C(F)(F)C(F)(F)F)nc1-c1ccc(C(=O)N2CCOCC2)cc1` [Example 136, (1R,2R)-N-(cyanomethyl)-5,5-difluoro-2-(4-(4-(morpholine-4-carbonyl)phenyl)-2-(perfluoroethyl)oxazol-5-yl)cyclohexanecarboxamide] are 0.00074 µM and 0.319 µM.
For `N#CC1(NC(=O)[C@@H]2CCCC[C@H]2c2oc(-c3ccc(F)cc3)nc2-c2ccc(N3CCc4ccccc43)cc2)CC1` [Example 152, (1R,2R)-N-(1-cyanocyclopropyl)-2-(2-(4-fluorophenyl)-4-(4-(indolin-1-yl)phenyl)oxazol-5-yl)cyclohexanecarboxamide], the IC50 worked out at 0.0897 µM at human cathepsin K and 0.839 µM at human cathepsin F.
Regarding `Cc1nc(-c2ccc(N3CC(S(C)(=O)=O)C3)cc2)c([C@@H]2CCCC[C@H]2C(=O)NC2(C#N)CC2)s1` [Example 55, (1R,2R)-N-(1-cyanocyclopropyl)-2-(2-mcthyl-4-(4-(3-(methylsulfonyl)azetidin-1-yl)phenyl)thiazol-5-yl)cyclohexanecarboxamide], the IC50 on human cathepsin K turned out to be 0.00415 µM; at human cathepsin F, 5.48 µM.
In the same order, the values of `N#CC1(NC(=O)[C@@H]2CCCC[C@H]2c2oc(C3CCC(F)(F)C3)nc2-c2ccc(N3CCS(=O)(=O)CC3)cc2)CC1` (mixture of isomers) [Example 114, (1R,2R)-N-(1-cyanocyclopropyl)-2-(2-((R and S)-3,3-difluorocyclopentyl)-4-(4-(1,1-dioxidothiomorpholino)phenyl)oxazol-5-yl)cyclohexanecarboxamide] are 0.0017 µM and 1.52 µM.
On the same counts, the results for `N#CC1(NC(=O)[C@@H]2CC3CC3C[C@H]2c2oc(-c3ccc(F)cn3)nc2-c2ccc(N3CCS(=O)(=O)CC3)cc2)CC1` (single isomer, unassigned) [Example 8, (1S,3R,4R,6R or 1R,3R,4R,6S)-N-(1-Cyanocyclopropyl)-4-(4-(4-(1,1-dioxidothiomorpholino)phenyl)-2-(5-fluoropyridin-2-yl)oxazol-5-yl)bicyclo[4.1.0]heptane-3-carboxamidc] are 0.00956 µM and 1.62 µM.
As to `N#CC1(NC(=O)[C@@H]2CCCC[C@H]2c2oc(-c3ccc(OC(F)F)nc3)nc2-c2ccc(N3CCS(=O)(=O)CC3)cc2)CC1` [Example 91, (1R,2R)-N-(1-cyanocyclopropyl)-2-(2-(6-(difluoromethoxy)pyridin-3-yl)-4-(4-(1,1-dioxidothiomorpholino)phenyl)oxazol-5-yl)cyclohexanecarboxamide], the values for the IC50 at human cathepsin K and at human cathepsin F were 0.0013 µM and 1.67 µM, respectively.
On the same counts, the results for `N#CC1(NC(=O)[C@@H]2C[C@@H](F)CC[C@H]2c2oc(-c3ccc(F)cc3)nc2-c2ccc(N3CCS(=O)(=O)CC3)cc2)CC1` [Example 31, (1R,2R,5S)-N-(1-cyanocyclopropyl)-2-(4-(4-(1,1-dioxidothiomorpholino)phenyl)-2-(4-fluorophenyl)oxazol-5-yl)-5-fluorocyclohexane-carboxamide] are 0.00061 µM and 1.39 µM.
Regarding `N#C[C@@H](NC(=O)[C@@H]1CCCC[C@H]1c1oc(-c2ccc(F)cc2)nc1-c1ccc(N2CCS(=O)(=O)CC2)cc1)C1CC1` [Example 155, (1R,2R)-N-((S)-cyano(cyclopropyl)methyl)-2-(4-(4-(1,1-dioxidothiomorpholino)phenyl)-2-(4-fluorophenyl)oxazol-5-yl)cyclohexanecarboxamide], the IC50 at human cathepsin K is 0.00073 µM; on human cathepsin F, 0.037 µM.
In the same order, the values of `N#CC1(NC(=O)[C@@H]2CCCC[C@H]2c2oc(-c3cccc(Cl)c3F)nc2-c2ccc(N3CCS(=O)(=O)CC3)cc2)CC1` [Example 6, (1R,2R)-2-(2-(3-chloro-2-fluorophenyl)-4-(4-(1,1-dioxidothiomorpholino)phenyl)oxazol-5-yl)-N-(1-cyanocyclopropyl)cyclohexanecarboxamide] are 0.00048 µM and 0.631 µM.
On the same counts, the results for `CC(C)(C)c1ccc(-c2nc(-c3ccc(N4CCS(=O)(=O)CC4)cc3)c([C@@H]3CCCC[C@H]3C(=O)NC3(C#N)CC3)o2)cc1` [Example 89, (1R,2R)-2-(2-(4-(tert-butyl)phenyl)-4-(4-(1,1-dioxidothiomorpholino)phenyl)oxazol-5-yl)-N-(1-cyanocyclopropyl) cyclohexanecarboxamide] are 0.00135 µM and 0.819 µM.
For `N#CC1(NC(=O)[C@@H]2CCCC[C@H]2c2oc(-c3ccc(F)cc3)nc2-c2ccc(N3CC[S+]([O-])CC3)cc2)CC1` [Example 135, (1R,2R)-N-(1-cyanocyclopropyl)-2-(2-(4-fluorophenyl)-4-(4-(1-oxidothiomorpholino)phenyl)oxazol-5-yl)cyclohexanecarboxamide], the IC50 turned out to be 0.00139 µM at human cathepsin K and 0.458 µM on human cathepsin F.
On the same counts, the results for `N#C[C@@H](NC(=O)[C@@H]1CCCC[C@H]1c1oc(-c2ccc(F)cc2)nc1-c1ccc(N2CCS(=O)(=O)CC2)cc1)C1CCCCC1` [Example 156, (1R,2R)-N-((S)-cyano(cyclohexyl)methyl)-2-(4-(4-(1,1-dioxidothiomorpholino)phenyl)-2-(4-fluorophenyl)oxazol-5-yl)cyclohexanecarboxamide] are 0.00241 µM and 0.179 µM.
In the same order, the values of `Cc1nc(-c2ccc(N3CCS(=O)(=O)CC3)cc2)c([C@@H]2CCC(F)(F)C[C@H]2C(=O)NCC#N)o1` [Example 12, (1R,2R)-N-(cyanomethyl)-2-(4-(4-(1,1-dioxidothiomorpholino)phenyl)-2-methyloxazol-5-yl)-5,5-difluorocyclohexane-carboxamide] are 0.00029 µM and 0.327 µM.
On to `COc1cccc(-c2nc(-c3ccc(N4CCS(=O)(=O)CC4)cc3)c([C@@H]3CCCC[C@H]3C(=O)NC3(C#N)CC3)o2)c1` [Example 71, (1R,2R)-N-(1-cyanocyclopropyl)-2-(4-(4-(1,1-dioxidothiomorpholino)phenyl)-2-(3-methoxyphenyl)oxazol-5-yl)cyclohexanecarboxamide], for which the IC50 at human cathepsin K was found to be 0.00159 µM; on human cathepsin F, 0.511 µM.
On the same counts, the results for `N#CC1(NC(=O)[C@@H]2CCCC[C@H]2c2oc(-c3cncc(N4CCS(=O)(=O)CC4)c3)nc2-c2ccc(N3CCS(=O)(=O)CC3)cc2)CC1` [Example 92, (1R,2R)-N-(1-cyanocyclopropyl)-2-(4-(4-(1,1-dioxidothiomorpholino)phenyl)-2-(5-(1,1-dioxidothiomorpholino)pyridin-3-yl)oxazol-5-yl)cyclohexanecarboxamide] are 0.00092 µM and 0.803 µM.
On to `N#CC1(NC(=O)[C@@H]2CCC(F)(F)C[C@H]2c2oc(C(F)(F)C(F)(F)F)nc2-c2ccc(N3CCS(=O)(=O)CC3)cc2)CC1` [Example 150, (1R,2R)-N-(1-cyanocyclopropyl)-2-(4-(4-(1,1-dioxidothiomorpholino)phenyl)-2-(perfluoroethyl)oxazol-5-yl)-4,4-difluorocyclohexane-carboxamide], for which the IC50 on human cathepsin K is 0.0047 µM; on human cathepsin F it was not below 10 µM.
On the same counts, the results for `N#CC1(NC(=O)[C@@H]2CCCC[C@H]2c2oc(-c3ccc(F)c(Cl)c3)nc2-c2ccc(N3CCS(=O)(=O)CC3)cc2)CC1` [Example 36, (1R,2R)-2-(2-(3-chloro-4-fluorophenyl)-4-(4-(1,1-dioxidothiomorpholino)phenyl)oxazol-5-yl)-N-(1-cyanocyclopropyl) cyclohexanecarboxamide] are 0.00094 µM and 0.382 µM.
Regarding `CC(C)(C#N)NC(=O)[C@@H]1CCCC[C@H]1c1oc(-c2ccc(F)cc2F)nc1-c1ccc(N2CCS(=O)(=O)CC2)cc1` [Example 43, (1R,2R)-N-(2-cyanopropan-2-yl)-2-(2-(2,4-difluorophenyl)-4-(4-(1,1-dioxidothiomorpholino)phenyl)oxazol-5-yl)cyclohexanecarboxamide], the IC50 amounted to 0.0157 µM at human cathepsin K and 1.65 µM at human cathepsin F.
In the same order, the values of `N#CCNC(=O)[C@@H]1CCCC[C@H]1c1oc(-c2ccc(F)cc2F)nc1-c1ccc(N2CCS(=O)(=O)CC2)cc1` [Example 44, (1R,2R)-N-(cyanomethyl)-2-(2-(2,4-difluorophenyl)-4-(4-(1,1-dioxidothiomorpholino)phenyl)oxazol-5-yl)cyclohexanecarboxamide] are 0.00067 µM and 0.229 µM.
